Assay results reported in EP0574808A1, “Amidine-biphenyl derivatives, process for their production & medical preparation containing them” (Dr. Karl Thomae GmbH, priority 1992, dated 1993).

System: Collagen-induzierte Thrombozytenaggregation
Assay: Ex vivo inhibition of collagen-induced platelet aggregation after oral administration (Born and Cross photometric method)
Conditions: oral 3 mg/kg, suspended in Natrosol; Rhesusaffen; Collagen 2 µg/ml in platelet-rich plasma
Description: Beispielsweise wurden die Verbindungen der allgemeinen Formel I auf ihre biologischen Wirkungen wie folgt untersucht: Die Hemmung der Thrombozytenaggregation nach oraler Gabe der Prüfsubstanz wird ex vivo an Rhesusaffen ermittelt.
Direkt vor der oralen Verabreichung der in Natrosol suspendierten Prüfsubstanz wird den Tieren eine Blutprobe aus der Kubitalvene als Referenzwert entnommen. Zu definierten Zeiten nach der Substanzgabe werden erneut Blutproben gewonnen und wie folgt untersucht.
Das mit 3,14% Natriumcitrat im Volumenverhältnis 1:10 versetzte Vollblut wird mit 200 g für 15 Minuten zentrifugiert. Der Überstand an plättchenreichem Plasma wird vorsichtig abgehoben. Aus dem erythrozytenreichen Sediment wird durch Zentrifugation mit 4000 g für 10 Minuten das plättchenarme Plasma als Überstand gewonnen.
Die mit Collagen (Hormonchemie, München; 2 µg/ml Endkonzentration im plättchenreichen Plasma) ausgelöste Thrombozytenaggregation in diesen ex vivo Proben wird nach der Methode von Born und Cross (J. Physiol. 170, 397 (1964)) photometrisch gemessen. Die nach Collagenstimulation gemessene größte Lichtdurchlässigkeit des plättchenreichen Plasmas wird mit dem Referenzwert verglichen, um die Hemmung der Aggregation zu den verschiedenen Zeitpunkten der Blutentnahme nach Substanzgabe relativ zum Referenzwert zu bestimmen.

`Cl.N=C(N)c1ccc(-c2ccc(C(=O)N3CCC(CC(=O)OC4CCCCC4)CC3)cc2)cc1` [Beispiel 1, 4-Amidino-4'-[4-(cyclohexyloxycarbonylmethyl)-piperidinocarbonyl]-biphenyl-hydrochlorid] was tested, and the “Dauer der Hemmung der Collagen-induzierten Thrombozytenaggregation ex vivo” value was over 4 Stunden.
